SMILES strings stand for the structures. Converted amounts (≈) assume the structure as drawn. Where two headings read alike, the source gives them in different places.

The record followed here is patent publication US4070469A, “Compound for the treatment of bovine mastitis” (priority 1975, dated 1978).

One experiment deals with Staph.Aureus. The experiment is described as follows: Minimal bactericidal activity (MBC) in milk, field isolates. Type of experiment: cell-based. Conditions: Staphylococcus aureus. The text has this: (§1) The activity of some of said nitrofuryl quinolines derivatives against Strep.uberis and Stap.Aureus in milk has been compared with the activity of some of the compounds so far utilised in the treatment of bovine mastitis. The results are shown in Table I. (The nitrofuryl quinoline derivatives have general formula [drawing 1] the meaning of R, A, R', B, Y, X and Z being given in the Table. R1 =O whenever indicated then the N-oxide is concerned; NF stands for nitrofuryl)
(§2) Minimal Bactericidal/Activity (MBC) of representative Nitrofuryl
(§3) in mcg/ml in milk at pH 7.2 - 7.4. Versus Standards (Field

For a further experiment, the system named is Strep.uberis. Described as above. Conditions: Streptococcus uberis. Type of experiment: cell-based.
Text: as §1, §2, §3

The mark [1] stands for this setting: in milk at pH 7.2 - 7.4, field isolate 2337, read-out: Minimal Bactericidal Activity (MBC), Staph.Aureus 2337.
[2] abbreviates: in milk at pH 7.2 - 7.4, field isolate 2372, read-out: Minimal Bactericidal Activity (MBC), Staph.Aureus 2372.
Setting [3] is: in milk at pH 7.2 - 7.4, field isolate 60B, read-out: Minimal Bactericidal Activity (MBC), Strep.uberis 60B.
Setting [4] is: in milk at pH 7.2 - 7.4, field isolate 127A, read-out: Minimal Bactericidal Activity (MBC), Strep.uberis 127A.
[5] abbreviates: read-out: Minimal Bactericidal Activity (MBC), Staph.Aureus 2337.
Where [6] appears, read: read-out: Minimal Bactericidal Activity (MBC), Staph.Aureus 2372.
The mark [7] stands for this setting: read-out: Minimal Bactericidal Activity (MBC), Strep.uberis 60B.
The mark [8] stands for this setting: read-out: Minimal Bactericidal Activity (MBC), Strep.uberis 127A.

Regarding `CCCOc1ccc2c(-c3ccc([N+](=O)[O-])o3)cc(C)[n+]([O-])c2c1` [Compound 42], the minimum bactericidal concentration (MBC) stood at 10 µg/mL (≈ 30.5 µM) in the experiment with Staph.Aureus (setting [1]), 5 µg/mL (≈ 15.2 µM) with Staph.Aureus (setting [2]), 5 µg/mL (≈ 15.2 µM) in the experiment with Strep.uberis (setting [3]) and 5 µg/mL (≈ 15.2 µM) in the experiment with Strep.uberis (setting [4]).

Consider `O=[N+]([O-])c1ccc(-c2ccc3ccccc3n2)o1` [Compound 3], for which the MBC in the experiment on Staph.Aureus (setting [1]), in the experiment with Staph.Aureus (setting [2]), in the experiment on Strep.uberis (setting [3]) and in the experiment on Strep.uberis (setting [4]) was > 10 µg/mL in each case.

With `CCc1cc(-c2ccc([N+](=O)[O-])o2)c2ccccc2[n+]1[O-]` [Compound 30], the MBC is 5 µg/mL (≈ 17.6 µM) with Staph.Aureus (setting [1]), 10 µg/mL (≈ 35.2 µM) in the experiment on Staph.Aureus (setting [2]), 5 µg/mL (≈ 17.6 µM) with Strep.uberis (setting [3]) and > 10 µg/mL in the experiment with Strep.uberis (setting [4]).

Regarding `COc1cc2c(-c3ccc([N+](=O)[O-])o3)cc(C)[n+]([O-])c2cc1OC` [Compound 39], the MBC in the experiment on Staph.Aureus (setting [1]) was 10 µg/mL (≈ 30.3 µM); with Staph.Aureus (setting [2]), 0.5 µg/mL (≈ 1.51 µM); in the experiment on Strep.uberis (setting [3]), 0.25 µg/mL (≈ 0.757 µM); in the experiment on Strep.uberis (setting [4]), 1 µg/mL (≈ 3.03 µM).

With `NC[C@H]1O[C@H](O[C@H]2[C@H](O)[C@@H](O[C@H]3O[C@H](CO)[C@@H](O)[C@H](N)[C@H]3O)[C@H](N)C[C@@H]2N)[C@H](O)[C@@H](O)[C@@H]1O` [Kanamycin, reference compound], the MBC with Staph.Aureus (setting [5]) turned out to be 12.5 µg/mL (≈ 25.8 µM); in the experiment with Staph.Aureus (setting [6]), 12.5 µg/mL (≈ 25.8 µM); in the experiment on Strep.uberis (setting [7]) it was 100 µg/mL (≈ 206 µM); with Strep.uberis (setting [8]) it was 100 µg/mL (≈ 206 µM).

In the case of `O=C(N[C@H](CO)[C@H](O)c1ccc([N+](=O)[O-])cc1)C(Cl)Cl` [Chloramphenicol, reference compound], the MBC was > 50 µg/mL with Staph.Aureus (setting [1]), > 50 µg/mL in the experiment on Staph.Aureus (setting [2]), 50 µg/mL (≈ 155 µM) in the experiment with Strep.uberis (setting [3]) and > 400 µg/mL in the experiment on Strep.uberis (setting [4]).

For `CCc1cc(-c2ccc([N+](=O)[O-])o2)c2cc(C)ccc2n1` [Compound 12], the minimum bactericidal concentration (MBC) in the experiment on Staph.Aureus (setting [1]), in the experiment on Staph.Aureus (setting [2]), in the experiment with Strep.uberis (setting [3]) and in the experiment with Strep.uberis (setting [4]) was > 10 µg/mL each time.

On to `Cc1ccc2nc(C)cc(-c3ccc([N+](=O)[O-])o3)c2c1` [Compound 27], for which the MBC in the experiment on Staph.Aureus (setting [1]), in the experiment with Staph.Aureus (setting [2]), in the experiment on Strep.uberis (setting [3]) and with Strep.uberis (setting [4]) was 10 µg/mL (≈ 37.3 µM) in each case.

For the molecule `O=C1OCCN1/N=C/c1ccc([N+](=O)[O-])o1` [Furazolidone, reference compound], the MBC in the experiment on Staph.Aureus (setting [1]) is > 10 µg/mL; in the experiment on Staph.Aureus (setting [2]), > 10 µg/mL; in the experiment with Strep.uberis (setting [3]), 10 µg/mL (≈ 44.4 µM); in the experiment with Strep.uberis (setting [4]) it was > 10 µg/mL.

For the molecule `CCOc1ccc2c(-c3ccc([N+](=O)[O-])o3)cc(C=NO)nc2c1` [Compound 38], the MBC in the experiment on Staph.Aureus (setting [1]) was 10 µg/mL (≈ 30.6 µM); in the experiment with Staph.Aureus (setting [2]) it was 5 µg/mL (≈ 15.3 µM); in the experiment on Strep.uberis (setting [3]), 5 µg/mL (≈ 15.3 µM); in the experiment on Strep.uberis (setting [4]) it was 10 µg/mL (≈ 30.6 µM).

For `Cc1ccc2c(c1)c(-c1ccc([N+](=O)[O-])o1)cc(C)[n+]2[O-]` [Compound 29], the MBC with Staph.Aureus (setting [1]), in the experiment on Staph.Aureus (setting [2]), with Strep.uberis (setting [3]) and with Strep.uberis (setting [4]) was 5 µg/mL (≈ 17.6 µM) in each case.

`Cc1cc(-c2ccc([N+](=O)[O-])o2)c2ccc(Cl)cc2n1` [Compound 28]: the MBC with Staph.Aureus (setting [1]), in the experiment with Staph.Aureus (setting [2]), in the experiment on Strep.uberis (setting [3]) and in the experiment with Strep.uberis (setting [4]) was > 10 µg/mL throughout.

On to `CN(C)[C@@H]1C(=O)C(C(N)=O)=C(O)[C@@]2(O)C(=O)C3=C(O)c4c(O)cccc4[C@@](C)(O)[C@H]3[C@H](O)[C@@H]12` [Oxytetracyclin, reference compound], for which the MBC with Staph.Aureus (setting [5]) is 25 µg/mL (≈ 54.3 µM); with Staph.Aureus (setting [6]) it was 50 µg/mL (≈ 109 µM); with Strep.uberis (setting [7]), 0.78 µg/mL (≈ 1.69 µM); in the experiment on Strep.uberis (setting [8]) it was > 50 µg/mL.

For `O=[N+]([O-])c1ccc(-c2cc(C=NO)nc3ccccc23)o1` [Compound 15], the minimal bactericidal concentration (MBC) in the experiment with Staph.Aureus (setting [1]), in the experiment with Staph.Aureus (setting [2]), in the experiment with Strep.uberis (setting [3]) and with Strep.uberis (setting [4]) was 1 µg/mL (≈ 3.53 µM) throughout.

As for `CCc1ccc2nc(C)cc(-c3ccc([N+](=O)[O-])o3)c2c1` [Compound 7], the MBC in the experiment on Staph.Aureus (setting [1]), in the experiment on Staph.Aureus (setting [2]), in the experiment on Strep.uberis (setting [3]) and in the experiment with Strep.uberis (setting [4]) was > 10 µg/mL each time.
